Measured values: US7547729B2, “1,3-diphenylprop-2-en-1-one derivative compounds, preparation method thereof and uses of same” (Genfit, priority 2004, dated 2009)

What was measured:
LDL = test: Protection against LDL oxidation by copper (conjugated diene formation); assay type: biochemical; settings: 10^−4M
Method: Unless otherwise indicated, the reagents were from Sigma (St Quentin, France). LDL were prepared according to the method described by Lebeau et al. (Lebeau, Furman et al. 2000).
The solutions of test compounds were prepared at 10^−2 M concentration in bicarbonate buffer (pH 9) and diluted in PBS to obtain final concentrations ranging from 0.1 to 100 μM
Prior to oxidation, EDTA was removed from the LDL preparation by dialysis. Oxidation then took place at 30° C. by adding 100 μl of 16.6 μM CuSO4 solution to 160 μL of LDL (125 μg protein/ml) and 20 μl of a test compound solution. The formation of dienes, the species under observation, was followed by measuring optical density at 232 nm in the samples treated with the compounds in the presence or absence of copper. Optical density at 232 nm was measured every 10 minutes for 8 hours in a thermostated spectrophotometer (Tecan Ultra 380). The analyses were performed in triplicate. The compounds were considered to have antioxidant activity when they induced a longer lag phase and reduced the rate of oxidation and the amount of dienes formed in comparison with the control sample.

PPARγ [1] = biological target: T1, PPARγ (Homo sapiens, UniProt P37231); test: PPARγ/Gal4 transactivation system in RK13 cells; assay type: cell-based; settings: 24 hours
T1 construct: expressed in transfected cells; host or cells: COS-7 cells
T1 sequence (P37231 238-503 limits assumed): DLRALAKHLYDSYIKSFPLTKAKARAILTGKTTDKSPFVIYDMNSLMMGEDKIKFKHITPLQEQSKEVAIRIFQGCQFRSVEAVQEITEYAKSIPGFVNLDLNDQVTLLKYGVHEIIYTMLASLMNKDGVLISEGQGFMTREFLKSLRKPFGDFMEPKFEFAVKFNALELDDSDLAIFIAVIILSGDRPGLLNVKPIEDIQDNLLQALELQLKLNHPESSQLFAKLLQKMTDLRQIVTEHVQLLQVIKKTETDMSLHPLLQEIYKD
Method: (§1) RK13 cells were incubated with the compound 2 at concentrations comprised between 0.01 and 10 μM for 24 hours. The results are expressed as the induction factor (ratio of luminescent signal obtained with the compound and that observed without the compound) after the different treatments.
(§2) PPAR activation was tested in vitro in RK13 epitheloid or COS-7 cell lines by measuring the transcriptional activity of chimeras composed of the DNA binding domain of the yeast gal4 transcription factor and the ligand binding domain of the different PPARs. These latter results were then confirmed in cell lines according to the following protocols:
(§3) RK13 cells were from ECACC (Porton Down, UK), COS-7 cells were from the ATCC (American Type Culture Collection) and were grown in DMEM medium supplemented with 10% (VN) fetal calf serum, 100 U/ml penicillin (Gibco, Paisley, UK) and 2 mM L-glutamine (Gibco, Paisley, UK). The culture medium was changed every two days. Cells were kept at 37° C. in a humidified 95% air/5% CO2 atmosphere.
(§4) The plasmids pG5TkpGL3, pRL-CMV, pGal4-hPPARα, pGal4-hPPARγ, pGal4-hPPARδ and pGal4-φ have been described by Raspe, Madsen et al. (1999). The pGal4-mPPARα, pGal4-hPPARγ and pGal4-hPPARδ constructs were obtained by cloning into the pGal4-φ vector of PCR-amplified DNA fragments corresponding to the DEF domains of the human PPARα, PPARγ and PPARδ nuclear receptors.
(§5) RK13 cells were seeded in 24-well culture dishes at 5×10^4 cells/well, COS-7 cells in 96-well culture dishes at 5×10^4 cells/well and transfected for 2 hours with the reporter plasmid pG5TkpGL3 (50 ng/well), the expression vectors pGal4-φ, pGal4-mPPARα, pGal4-hPPARα, pGal4-hPPARγ, pGal4-hPPARδ (100 ng/well) and the transfection efficiency control vector pRL-CMV (1 ng/well) according to the previously described protocol (Raspe, Madsen et al. 1999), then incubated for 36 hours with the test compounds. At the end of the experiment, the cells were lysed (Gibco, Paisley, UK) and luciferase activity was determined with a Dual-Luciferase™ Reporter Assay System kit (Promega, Madison, Wis., USA) for RK13 cells and Steady Glow Luciferase (Promega) for COS-7 cells according to the supplier's instructions as previously described. The protein content of the cell extracts was then measured with the Bio-Rad Protein Assay (Bio-Rad, Munich, Germany) as directed by the supplier.

PPARα [2] = biological target: T2, PPARα (Homo sapiens, UniProt Q07869); test: PPARα/Gal4 transactivation system in RK13 cells; assay type: cell-based; settings: 24 hours
T2 construct: expressed in transfected cells; host or cells: COS-7 cells
T2 sequence (Q07869 239-466 limits assumed): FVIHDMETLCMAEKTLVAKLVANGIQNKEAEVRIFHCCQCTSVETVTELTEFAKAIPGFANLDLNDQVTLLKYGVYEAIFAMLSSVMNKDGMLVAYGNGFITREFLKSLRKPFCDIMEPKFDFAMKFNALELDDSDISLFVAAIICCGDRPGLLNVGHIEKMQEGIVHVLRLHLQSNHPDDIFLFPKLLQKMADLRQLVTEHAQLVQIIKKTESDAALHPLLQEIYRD
Method: as §1
as §2, with “protocols: […]” for “protocols:”
as §5, with “At the end of the experiment, the cells were lysed (Gibco, Paisley, UK) and luciferase activity was determined with a Dual-Luciferase™ Reporter Assay System kit (Promega, Madison, Wis., USA) for RK13 cells and Steady Glow Luciferase (Promega) for COS-7 cells according to the supplier's instructions as previously described.” left out

[3] = tested on: Apo E2/E2 transgenic mice; test: Effects on triglyceride and cholesterol metabolism in Apo E2/E2 transgenic mice; assay type: in vivo; settings: gavage, 50 mg/kg/day, seven days
Method: FIGS. 19a, 19b, 19c, 19d, 20a, 20b, 20c and 20d illustrate the effects of treatment with compound 2 (Cpd2), compound 13 (Cpd13), compound 33 (Cpd33) and compound 39 (Cpd39) on triglyceride and cholesterol metabolism in Apo E2/E2 transgenic mice treated by gavage with the compound at a dose of 50 mg/kg/day, for seven days.
Apo E2/E2 transgenic mice were housed in a 12-hour light/dark cycle at a constant temperature of 20±3° C. After a 1-week acclimatization period, the mice were weighed and divided into groups of 6 animals selected such that the distribution of body weight was uniform. The test compounds were suspended in carboxymethylcellulose and administered by gastric lavage at the indicated doses, once a day for 7 days. Animals had access to food and water ad libitum. At the end of the experiments, animals were weighed and sacrificed under anesthesia. Blood was collected on EDTA. Plasma was isolated by centrifugation at 3000 rpm for 20 minutes. Liver samples were removed and stored frozen in liquid nitrogen for later analysis.
Lipid concentrations in plasma (total cholesterol and free cholesterol, triglycerides and phospholipids) were determined by a colorimetric assay (Boehringer, Mannheim, Germany) according to the supplier's instructions. Plasma concentrations of apolipoproteins AI, AII and CIII were determined as previously described (Raspe et al. 1999, Asset G et al., Lipids, 1999).

PPARα [4] = biological target: T2, PPARα; test: PPARα/Gal4 transactivation system in COS-7 cells; assay type: cell-based; settings: 24 hours
Method: (§6) COS-7 cells were incubated with different concentrations of the inventive compounds for 24 hours. The results are expressed as the induction factor (ratio of luminescent signal obtained with the compound and that observed without the compound) after the different treatments.
as §2, §3, §4, §5

[5] = tested on: monocyte-derived dendritic cells; test: Differentiation of monocytes to dendritic cells (flow cytometry of surface markers); assay type: cell-based
Method: Compound 39 (10^−6 M) was added at D0 of differentiation of monocytes to dendritic cells. After six days of differentiation (in the presence of cytokines GM-CSF and IL-4), the dendritic cells were analyzed by flow cytometry.
For these experiments, blood samples from volunteer donors (Etablissement Francais du Sang) and monocytes were isolated by a standard protocol using anti-CD14-conjugated magnetic beads (Miltenyi Biotec). Monocytes isolated in this manner were then induced to differentiate by incubation for 6 days in culture medium containing a mixture of cytokines GM-CSF and IL-4 (20 ng/ml for each cytokine).
Compound 39 was added at t=0 and acquisition of the dendritic cell phenotype was followed by expression of the cell surface marker CD1a.

PPARγ [6] = biological target: T1, PPARγ; test: PPARγ/Gal4 transactivation system in COS-7 cells; assay type: cell-based; settings: 24 hours
Method: as §6, §2, §3, §4, §5

naive CD4+ T cells = test: Mixed Lymphocyte Reaction (MLR), BrdU incorporation; assay type: cell-based
Method: FIG. 23 illustrates a Mixed Lymphocyte Reaction (MLR) carried out in the presence of increasing amounts of dendritic cells treated or not with compound 31 and incubated with naive CD4+ T cells for seven days. T cell proliferation was determined by BrdU (bromodeoxyuridine) incorporation.
For this experiment, increasing amounts of mature dendritic cells (treated or not with the compound) were incubated with a fixed amount of naive CD4+ T cells from another donor. After a 5-day incubation, BrdU (bromodeoxyuridine) was added for 24 hours and the incorporation thereof in T cells was determined by ELISA with anti-BrdU antibodies coupled to chemiluminescent tags.

PPARδ = biological target: T3, PPARδ (Homo sapiens, UniProt Q03181); test: PPARδ/Gal4 transactivation system in COS-7 cells; assay type: cell-based; settings: 24 hours
T3 construct: expressed in transfected cells; host or cells: COS-7 cells
T3 sequence (Q03181 211-439 limits assumed): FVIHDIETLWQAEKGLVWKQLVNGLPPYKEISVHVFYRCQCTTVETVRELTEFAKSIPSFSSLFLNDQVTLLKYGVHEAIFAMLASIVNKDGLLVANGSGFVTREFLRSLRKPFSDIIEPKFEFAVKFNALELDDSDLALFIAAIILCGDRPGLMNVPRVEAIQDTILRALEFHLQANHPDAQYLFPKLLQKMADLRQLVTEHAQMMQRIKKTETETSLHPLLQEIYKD
Method: as §6, §2, §3, §4, §5

[7] = compound added at t=0, six days differentiation, data not shown

| Induction factor (PPARα [4]; 0.001 μM) | Induction factor (PPARα [4]; 0.003 μM) | Induction factor (PPARα [4]; 0.01 μM) | Induction factor (PPARα [4]; 0.03 μM) | Induction factor (PPARα [4]; 0.1 μM) | Induction factor (PPARα [4]; 0.3 μM) | Induction factor (PPARα [4]; 1 μM) | Induction factor (PPARα [4]; 3 μM) | Induction factor (PPARγ [6]; 0.001 μM) | Induction factor (PPARγ [6]; 0.003 μM) | Induction factor (PPARγ [6]; 0.01 μM) | Induction factor (PPARγ [6]; 0.03 μM) | Induction factor (PPARγ [6]; 0.1 μM) | Induction factor (PPARγ [6]; 0.3 μM) | Induction factor (PPARγ [6]; 1 μM) | Induction factor (PPARγ [6]; 3 μM) | Structure (SMILES) | plasma cholesterol [3] | plasma triglycerides [3] | further results |
| --- | --- | --- | --- | --- | --- | --- | --- | --- | --- | --- | --- | --- | --- | --- | --- | --- | --- | --- | --- |
|  |  |  |  |  |  |  |  |  |  |  |  |  |  |  |  | CCCCCSCCOc1ccc(C(=O)/C=C/c2cc(C)c(OC(C)(C)C(=O)O)c(C)c2)cc1 [compound 2, 1-(4-(Pentylthioethyloxy)phenyl)-3-(4-carboxydimethylmethyloxy-3,5-dimethylphenyl)prop-2-en-1-one] | decrease | decrease | lag phase of conjugated diene formation (LDL; FIG. 1a, copper alone 120 minutes): 314 min; rate of diene formation (LDL; FIG. 1b, copper alone 1.8): 0.1 nmol/min/mg of LDL; maximum amount of conjugated dienes formed (LDL; FIG. 1c, copper alone 372): 35 nmol/mg; decrease in the amount of conjugated dienes formed (LDL; FIG. 1c, versus copper alone): 90%; Induction factor (PPARγ [1]; 0.01 μM): 1.31; Induction factor (PPARγ [1]; 0.03 μM): 1.18; Induction factor (PPARγ [1]; 0.1 μM): 1.73; Induction factor (PPARγ [1]; 0.3 μM): 4.58; Induction factor (PPARγ [1]; 1 μM): 9.50; Induction factor (PPARγ [1]; 3 μM): 16.64; Induction factor (PPARγ [1]; 10 μM): 31.00; Induction factor (PPARα [2]; 1 μM): 8.83; Induction factor (PPARα [2]; 10 μM): 18.49 |
| 1.08 | 1.17 | 3.19 | 7.69 | 9.68 | 10.16 | 10.42 | 9.96 | 0.95 | 0.96 | 1.56 | 3.06 | 4.08 | 4.86 | 4.78 | 4.72 | CCCCCCSc1c(C)cc(C(=O)/C=C/c2cc(C)c(OC(C)(C)C(=O)O)c(C)c2)cc1C [compound 39, 1-(4-Hexylthio-3,5-dimethylphenyl)-3-(4-carboxydimethylmethyloxy-3,5-dimethylphenyl)prop-2-en-1-one] | decrease | decrease | lag phase (LDL; FIG. 8a, absence of compounds 67.3 minutes): 133 min; rate of LDL oxidation (LDL; FIG. 8b, absence of compounds 2.5): 1.2 nmol/min/mg; total amount of dienes formed (LDL; FIG. 8c, absence of compound 432.3): 371.2 nmol/mg; expression of CD1a at the cell surface ([5]; 10^−6 M added at D0, six days with GM-CSF and IL-4): almost totally inhibiting; CD86 expression [5, 7]: slightly increased; expression of the costimulation molecule CD80 [5, 7]: reduced, to a lesser extent |
| 1.10 | 1.09 | 1.23 | 1.23 | 1.23 | 1.73 | 1.88 | 3.69 | 1.44 | 2.19 | 3.06 | 4.87 | 5.99 | 6.96 | 7.05 | 7.79 | Cc1cc(/C=C/C(=O)c2c(C)c(C)c(C)c(C)c2C)cc(C)c1OC(C)(C)C(=O)O [compound 31, 1-(2,3,4,5,6-Pentamethylphenyl)-3-(4-carboxydimethylmethyloxy-3,5-dimethylphenyl)prop-2-en-1-one] |  |  | capacity of treated dendritic cells to induce proliferation of naive CD4+ T cells (naive CD4+ T cells): lower capacity; kinetics of LDL oxidation (lag phase) (LDL; FIG. 5a, no control value printed): 124.5 min; LDL oxidation rate (LDL; FIG. 5b, absence of compounds 2): 1.4 nmol/min/mg; total amount of dienes formed (LDL; FIG. 5c, absence of compounds 386): 352 nmol/mg; Induction factor (PPARδ; 0.001 μM): 1.00; Induction factor (PPARδ; 0.003 μM): 1.05; Induction factor (PPARδ; 0.01 μM): 1.09; Induction factor (PPARδ; 0.03 μM): 1.16; Induction factor (PPARδ; 0.1 μM): 1.35; Induction factor (PPARδ; 0.3 μM): 2.67; Induction factor (PPARδ; 1 μM): 4.12; Induction factor (PPARδ; 3 μM): 10.82; Induction factor (PPARδ; 10 μM): 11.70; Induction factor (PPARα [4]; 10 μM): 6.03 |
